Target: influenza virus minigenome (PB2, PB1, PA, NP, Luciferase reporter), Hubei (Influenza A virus, UniProt A0A1L2FNK2)
Type: cell-based
Settings: read-out: RNP_Hubei EC50

## O=C1c2c(O)c(=O)cnn2[C@@H]([C@@H](c2cccc(F)c2)c2ccc(F)c(F)c2)[C@H]2CCCN12 [Example 34, (9aR,10S)-10-((S)-(3,4-difluorophenyl)(3-fluorophenyl)methyl)-4-hydroxy-8,9,9a,10-tetrahydro-7H-pyrrolo[1′,2′:4,5]pyrazino[1,2-b]pyridazine-3,5-dione]
  EC50: 43 nM

Reference: patent US10160764B2 (priority 2016, dated 2018)
